Test results reported in patent publication US12275731B2, “Azaindole inhibitors of wild-type and mutant forms of LRRK2” (DANA-FARBER CANCER INSTITUTE, INC., priority 2018, dated 2025).

What was measured:
Assay in all cases: KinomeScan profiling
Assay type in all cases: binding
[1] = target: OSR1 (Homo sapiens, UniProt O95747); conditions: OSR1, 1 μM; read-out: % control
How it was run: (§1)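 First, compounds in DMSO are added at 1 μM to each of 468 kinase assays. Next, RLU signals are normalised between positive control (0%) and DMSO (100%). Finally, kinases under 35% are flagged active.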

[2] = target: T1, LKB1 (Homo sapiens, UniProt Q15831); conditions: LKB1, 1 μM; read-out: % control
T1 sequence (Q15831 1-433): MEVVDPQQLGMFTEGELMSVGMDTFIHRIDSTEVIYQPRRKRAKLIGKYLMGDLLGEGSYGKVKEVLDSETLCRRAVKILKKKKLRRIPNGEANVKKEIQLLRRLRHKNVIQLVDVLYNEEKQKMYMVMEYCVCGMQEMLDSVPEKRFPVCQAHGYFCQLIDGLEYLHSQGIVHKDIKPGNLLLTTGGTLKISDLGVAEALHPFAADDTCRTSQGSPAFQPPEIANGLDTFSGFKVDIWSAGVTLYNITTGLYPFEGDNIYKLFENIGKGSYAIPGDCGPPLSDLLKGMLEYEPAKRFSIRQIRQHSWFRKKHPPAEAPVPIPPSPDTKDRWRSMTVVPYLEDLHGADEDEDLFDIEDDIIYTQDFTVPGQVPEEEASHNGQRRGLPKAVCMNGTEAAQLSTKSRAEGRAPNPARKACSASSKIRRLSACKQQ
How it was run: as §1

[3] = target: T2, IKK-beta (Homo sapiens, UniProt O14920); conditions: read-out: % control
T2 construct: purchased KinomeScan®
T2 sequence (O14920 1-756): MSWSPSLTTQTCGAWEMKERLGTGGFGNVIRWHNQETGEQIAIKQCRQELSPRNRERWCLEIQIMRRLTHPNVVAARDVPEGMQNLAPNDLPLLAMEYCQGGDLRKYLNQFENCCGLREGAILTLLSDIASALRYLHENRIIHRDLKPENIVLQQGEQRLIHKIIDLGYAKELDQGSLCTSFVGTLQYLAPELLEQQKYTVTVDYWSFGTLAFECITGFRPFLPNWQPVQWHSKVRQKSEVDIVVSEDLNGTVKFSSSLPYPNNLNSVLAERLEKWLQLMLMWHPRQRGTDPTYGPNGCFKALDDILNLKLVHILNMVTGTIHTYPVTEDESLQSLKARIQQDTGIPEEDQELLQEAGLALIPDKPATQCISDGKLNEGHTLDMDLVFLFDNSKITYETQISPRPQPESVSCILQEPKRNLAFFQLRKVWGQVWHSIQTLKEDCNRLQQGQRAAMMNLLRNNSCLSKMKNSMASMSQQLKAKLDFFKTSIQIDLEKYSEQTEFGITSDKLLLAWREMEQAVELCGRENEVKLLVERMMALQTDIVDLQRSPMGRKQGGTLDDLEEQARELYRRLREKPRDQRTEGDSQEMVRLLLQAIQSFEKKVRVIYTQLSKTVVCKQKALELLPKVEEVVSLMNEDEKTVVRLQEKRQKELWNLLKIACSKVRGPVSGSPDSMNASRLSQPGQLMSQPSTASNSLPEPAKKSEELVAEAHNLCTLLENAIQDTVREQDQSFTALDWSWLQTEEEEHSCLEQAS
How it was run: as §1

[4] = target: CSNK1E (Homo sapiens, UniProt P49674); conditions: read-out: % control
How it was run: as §1

[5] = target: RET(V804M) (Homo sapiens, UniProt P07949, V804M); conditions: read-out: % control
Chain of RET(V804M) (P07949 29-1114 V804M): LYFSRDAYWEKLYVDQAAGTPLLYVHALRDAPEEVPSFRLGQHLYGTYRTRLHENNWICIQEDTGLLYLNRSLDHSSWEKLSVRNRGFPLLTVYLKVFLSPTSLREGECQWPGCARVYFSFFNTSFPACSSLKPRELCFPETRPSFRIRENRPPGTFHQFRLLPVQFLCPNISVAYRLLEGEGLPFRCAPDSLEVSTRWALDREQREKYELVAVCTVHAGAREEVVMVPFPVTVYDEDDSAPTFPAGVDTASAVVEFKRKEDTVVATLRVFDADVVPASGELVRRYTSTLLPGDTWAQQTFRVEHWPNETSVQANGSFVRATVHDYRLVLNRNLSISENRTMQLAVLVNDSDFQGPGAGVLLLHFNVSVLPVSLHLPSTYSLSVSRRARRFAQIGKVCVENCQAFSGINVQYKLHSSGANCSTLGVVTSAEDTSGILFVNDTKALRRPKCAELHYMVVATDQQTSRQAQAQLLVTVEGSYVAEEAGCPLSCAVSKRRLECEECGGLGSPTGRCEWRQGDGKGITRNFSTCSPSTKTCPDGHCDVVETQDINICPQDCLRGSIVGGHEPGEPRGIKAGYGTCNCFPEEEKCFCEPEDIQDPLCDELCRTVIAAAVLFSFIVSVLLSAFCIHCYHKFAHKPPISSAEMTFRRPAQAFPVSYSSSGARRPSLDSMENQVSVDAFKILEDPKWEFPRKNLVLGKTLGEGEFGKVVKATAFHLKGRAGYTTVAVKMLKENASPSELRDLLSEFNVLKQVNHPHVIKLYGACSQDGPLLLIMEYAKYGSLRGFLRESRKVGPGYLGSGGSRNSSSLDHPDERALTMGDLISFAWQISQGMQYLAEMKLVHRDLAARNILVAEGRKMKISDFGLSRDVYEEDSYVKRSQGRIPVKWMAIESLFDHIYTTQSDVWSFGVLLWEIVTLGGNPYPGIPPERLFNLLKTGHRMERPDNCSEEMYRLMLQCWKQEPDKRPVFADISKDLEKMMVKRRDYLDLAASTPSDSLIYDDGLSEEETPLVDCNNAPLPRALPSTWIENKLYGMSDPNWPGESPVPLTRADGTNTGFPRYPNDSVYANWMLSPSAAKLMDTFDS
How it was run: as §1

[6] = target: WEE2 (Homo sapiens, UniProt P0C1S8); conditions: WEE2, 1 μM; read-out: % control
How it was run: as §1

[7] = target: T3, ICK (Homo sapiens, UniProt Q9UPZ9); conditions: read-out: % control
T3 sequence (Q9UPZ9 1-632): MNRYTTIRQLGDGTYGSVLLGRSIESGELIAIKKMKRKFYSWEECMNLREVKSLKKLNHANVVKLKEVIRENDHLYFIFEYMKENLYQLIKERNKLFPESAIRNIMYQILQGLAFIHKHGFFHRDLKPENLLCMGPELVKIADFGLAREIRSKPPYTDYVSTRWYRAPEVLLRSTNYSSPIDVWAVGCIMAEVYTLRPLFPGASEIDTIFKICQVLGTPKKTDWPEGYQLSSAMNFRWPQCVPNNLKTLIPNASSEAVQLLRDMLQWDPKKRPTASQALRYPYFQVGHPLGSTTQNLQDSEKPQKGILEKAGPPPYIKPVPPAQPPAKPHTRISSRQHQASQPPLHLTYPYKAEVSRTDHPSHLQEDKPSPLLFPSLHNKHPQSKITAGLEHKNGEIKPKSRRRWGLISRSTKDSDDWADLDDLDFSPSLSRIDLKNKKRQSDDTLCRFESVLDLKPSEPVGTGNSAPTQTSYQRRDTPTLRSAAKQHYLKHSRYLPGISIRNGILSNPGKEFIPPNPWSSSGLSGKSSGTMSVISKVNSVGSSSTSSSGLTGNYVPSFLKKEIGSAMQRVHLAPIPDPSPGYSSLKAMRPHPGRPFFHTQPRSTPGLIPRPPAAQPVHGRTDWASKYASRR
How it was run: as §1

[8] = target: WNK3 (Homo sapiens, UniProt Q9BYP7); conditions: WNK3, 1 μM; read-out: % control
Chain of WNK3 (Q9BYP7 whole entry): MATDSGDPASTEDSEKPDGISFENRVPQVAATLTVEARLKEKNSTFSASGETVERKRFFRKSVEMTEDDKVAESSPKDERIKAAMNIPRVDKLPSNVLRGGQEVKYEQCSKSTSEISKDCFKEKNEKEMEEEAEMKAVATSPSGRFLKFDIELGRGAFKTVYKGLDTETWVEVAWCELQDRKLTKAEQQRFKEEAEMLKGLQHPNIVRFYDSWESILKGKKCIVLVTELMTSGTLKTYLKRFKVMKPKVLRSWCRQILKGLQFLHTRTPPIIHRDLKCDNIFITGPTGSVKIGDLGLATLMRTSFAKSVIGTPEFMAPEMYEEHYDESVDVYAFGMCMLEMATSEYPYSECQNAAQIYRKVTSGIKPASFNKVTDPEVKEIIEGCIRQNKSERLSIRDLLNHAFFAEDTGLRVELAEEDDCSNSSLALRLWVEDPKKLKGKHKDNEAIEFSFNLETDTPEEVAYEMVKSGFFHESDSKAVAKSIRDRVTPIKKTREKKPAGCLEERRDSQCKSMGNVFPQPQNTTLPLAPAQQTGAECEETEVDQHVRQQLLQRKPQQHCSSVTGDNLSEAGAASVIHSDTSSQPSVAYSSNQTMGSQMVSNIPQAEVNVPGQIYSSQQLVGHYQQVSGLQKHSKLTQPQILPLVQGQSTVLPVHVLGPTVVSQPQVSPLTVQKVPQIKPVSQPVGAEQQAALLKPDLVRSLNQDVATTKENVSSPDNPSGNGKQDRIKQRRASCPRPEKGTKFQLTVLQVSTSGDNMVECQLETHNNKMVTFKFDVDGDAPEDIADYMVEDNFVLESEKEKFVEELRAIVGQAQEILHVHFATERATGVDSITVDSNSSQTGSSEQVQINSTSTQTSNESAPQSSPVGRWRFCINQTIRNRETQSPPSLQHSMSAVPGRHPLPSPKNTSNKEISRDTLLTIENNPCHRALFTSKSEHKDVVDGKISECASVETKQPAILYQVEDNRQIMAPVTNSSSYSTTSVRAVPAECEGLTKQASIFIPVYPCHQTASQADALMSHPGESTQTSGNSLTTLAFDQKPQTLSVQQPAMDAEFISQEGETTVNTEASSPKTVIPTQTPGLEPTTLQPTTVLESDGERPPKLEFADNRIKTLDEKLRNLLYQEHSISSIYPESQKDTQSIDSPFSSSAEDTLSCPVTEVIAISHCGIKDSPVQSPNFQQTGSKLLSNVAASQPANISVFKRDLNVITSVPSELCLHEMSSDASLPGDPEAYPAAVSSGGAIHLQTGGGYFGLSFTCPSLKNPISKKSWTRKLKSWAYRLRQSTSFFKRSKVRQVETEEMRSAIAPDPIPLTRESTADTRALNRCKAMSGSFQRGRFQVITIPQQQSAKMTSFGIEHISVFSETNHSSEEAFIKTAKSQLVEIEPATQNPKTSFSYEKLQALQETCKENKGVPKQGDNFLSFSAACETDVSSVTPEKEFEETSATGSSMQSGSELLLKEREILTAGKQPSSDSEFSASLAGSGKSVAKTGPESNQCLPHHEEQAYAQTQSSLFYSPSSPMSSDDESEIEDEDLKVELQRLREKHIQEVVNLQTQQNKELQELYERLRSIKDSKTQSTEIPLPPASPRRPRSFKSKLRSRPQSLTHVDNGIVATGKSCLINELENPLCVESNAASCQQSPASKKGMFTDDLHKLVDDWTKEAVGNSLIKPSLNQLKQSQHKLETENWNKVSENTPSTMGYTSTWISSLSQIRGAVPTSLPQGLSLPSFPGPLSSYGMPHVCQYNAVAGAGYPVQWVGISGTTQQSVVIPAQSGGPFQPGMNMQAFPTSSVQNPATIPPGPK
How it was run: as §1

[9] = target: EGFR(S752-I759del) (Homo sapiens, UniProt P00533, DEL752-759); conditions: read-out: % control
How it was run: as §1

[10] = target: ROCK2 (Homo sapiens, UniProt O75116); conditions: ROCK2, 1 μM; read-out: % control
Chain of ROCK2 (O75116 whole entry): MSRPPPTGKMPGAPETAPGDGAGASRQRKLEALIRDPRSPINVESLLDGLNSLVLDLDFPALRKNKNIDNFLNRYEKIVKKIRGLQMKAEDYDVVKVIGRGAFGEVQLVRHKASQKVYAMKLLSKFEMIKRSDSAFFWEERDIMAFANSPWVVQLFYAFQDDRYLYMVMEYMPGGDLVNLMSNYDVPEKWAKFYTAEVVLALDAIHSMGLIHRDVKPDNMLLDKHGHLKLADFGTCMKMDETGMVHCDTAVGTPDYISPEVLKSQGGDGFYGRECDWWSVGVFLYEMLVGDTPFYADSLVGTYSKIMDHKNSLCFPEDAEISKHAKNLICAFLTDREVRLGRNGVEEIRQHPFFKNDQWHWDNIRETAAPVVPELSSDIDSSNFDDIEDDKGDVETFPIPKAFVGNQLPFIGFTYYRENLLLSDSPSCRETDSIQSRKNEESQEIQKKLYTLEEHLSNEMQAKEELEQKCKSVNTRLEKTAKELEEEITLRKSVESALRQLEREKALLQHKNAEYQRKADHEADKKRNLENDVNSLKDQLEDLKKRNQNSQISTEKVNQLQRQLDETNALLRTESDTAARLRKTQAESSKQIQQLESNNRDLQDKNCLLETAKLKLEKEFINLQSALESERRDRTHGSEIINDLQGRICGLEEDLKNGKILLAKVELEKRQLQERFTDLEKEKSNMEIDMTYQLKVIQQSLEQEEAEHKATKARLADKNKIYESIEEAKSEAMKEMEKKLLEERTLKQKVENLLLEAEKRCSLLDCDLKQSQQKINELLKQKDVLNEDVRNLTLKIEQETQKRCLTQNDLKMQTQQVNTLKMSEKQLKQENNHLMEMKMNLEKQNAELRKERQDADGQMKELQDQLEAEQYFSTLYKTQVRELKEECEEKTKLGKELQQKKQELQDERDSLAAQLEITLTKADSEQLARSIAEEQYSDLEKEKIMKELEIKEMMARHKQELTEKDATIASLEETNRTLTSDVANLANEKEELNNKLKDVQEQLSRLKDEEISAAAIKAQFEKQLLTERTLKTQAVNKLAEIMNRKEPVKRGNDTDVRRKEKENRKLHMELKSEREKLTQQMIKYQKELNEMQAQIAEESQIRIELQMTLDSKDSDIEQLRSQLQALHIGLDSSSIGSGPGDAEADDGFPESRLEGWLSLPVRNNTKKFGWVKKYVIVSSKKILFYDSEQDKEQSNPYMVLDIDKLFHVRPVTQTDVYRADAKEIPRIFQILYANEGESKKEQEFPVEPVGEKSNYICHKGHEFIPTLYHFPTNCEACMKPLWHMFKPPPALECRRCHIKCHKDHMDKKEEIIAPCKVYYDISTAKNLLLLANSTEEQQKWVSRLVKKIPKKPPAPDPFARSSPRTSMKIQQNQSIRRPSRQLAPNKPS
How it was run: as §1

[11] = target: FGFR4 (Homo sapiens, UniProt P22455); conditions: FGFR4, 1 μM; read-out: % control
Chain of FGFR4 (P22455 22-802): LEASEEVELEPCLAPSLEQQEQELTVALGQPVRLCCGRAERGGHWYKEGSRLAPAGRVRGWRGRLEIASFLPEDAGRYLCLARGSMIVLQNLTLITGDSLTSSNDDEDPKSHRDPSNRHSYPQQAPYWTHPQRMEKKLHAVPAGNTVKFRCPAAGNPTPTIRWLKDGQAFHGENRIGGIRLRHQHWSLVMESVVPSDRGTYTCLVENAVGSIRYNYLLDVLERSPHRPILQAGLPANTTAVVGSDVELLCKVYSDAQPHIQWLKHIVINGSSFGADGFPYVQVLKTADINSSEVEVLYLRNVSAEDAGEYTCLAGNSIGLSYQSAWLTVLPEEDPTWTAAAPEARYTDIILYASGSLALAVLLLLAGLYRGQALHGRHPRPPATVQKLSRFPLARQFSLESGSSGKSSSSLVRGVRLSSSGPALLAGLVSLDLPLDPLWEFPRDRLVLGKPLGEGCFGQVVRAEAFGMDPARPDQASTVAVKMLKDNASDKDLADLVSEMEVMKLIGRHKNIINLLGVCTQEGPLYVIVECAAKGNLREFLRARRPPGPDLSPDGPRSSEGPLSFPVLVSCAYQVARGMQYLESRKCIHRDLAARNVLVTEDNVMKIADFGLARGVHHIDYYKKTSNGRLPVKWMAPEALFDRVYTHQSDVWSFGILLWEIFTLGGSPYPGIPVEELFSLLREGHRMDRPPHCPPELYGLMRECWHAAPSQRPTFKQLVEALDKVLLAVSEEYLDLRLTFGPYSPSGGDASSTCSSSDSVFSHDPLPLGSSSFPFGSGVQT
How it was run: as §1

[12] = target: FRK (Homo sapiens, UniProt P42685); conditions: read-out: % control
How it was run: as §1

[13] = target: EPHA5 (Homo sapiens, UniProt P54756); conditions: EPHA5, 1 μM; read-out: % control
How it was run: as §1

| Structure (SMILES) | remaining binding at 1 µM [1] | remaining binding at 1 µM [2] | remaining binding at 1 µM [3] | remaining binding at 1 µM [4] | remaining binding at 1 µM [5] | remaining binding at 1 µM [6] | remaining binding at 1 µM [7] | remaining binding at 1 µM [8] | remaining binding at 1 µM [9] | remaining binding at 1 µM [10] | remaining binding at 1 µM [11] | remaining binding at 1 µM [12] | remaining binding at 1 µM [13] |
| --- | --- | --- | --- | --- | --- | --- | --- | --- | --- | --- | --- | --- | --- |
| CNc1c(-c2cnn([C@H]3CCN(C(C)=O)C[C@@H]3F)c2)cnc2[nH]cc(Cl)c12 [Compound 77, 1-((3S,4S)-4-(4-(3-chloro-4-(methylamino)-1H-pyrrolo[2,3-b]pyridin-5-yl)-1H-pyrazol-1-yl)-3-fluoropiperidin-1-yl)ethan-1-one] | 75% | 88% | 28% | 68% | 52% | 95% | 35% | 86% | 100% | 8.9% | 61% | 100% | 96% |
| O=C(c1ccc(-c2cnc3[nH]cc(Cl)c3c2NC2CCCC2)cc1)N1CCC(N2CCOCC2)CC1 [Compound 101, (4-(3-chloro-4-(cyclopentylamino)-1H-pyrrolo[2,3-b]pyridin-5-yl)phenyl)(4-morpholinopiperidin-1-yl)methanone] | 100% | 78% | 93% | 81% | 99% | 94% | 100% | 92% | 100% | 81% | 85% | 100% | 98% |
| CNc1c(-c2ccc(C(=O)N3CCC(N4CCOCC4)CC3)cc2)cnc2[nH]cc(Cl)c12 [Compound 96, (4-(3-chloro-4-(methylamino)-1H-pyrrolo[2,3-b]pyridin-5-yl)phenyl)(4-morpholinopiperidin-1-yl)methanone] | 66% | 91% | 32% | 17% | 61% | 100% | 35% | 73% | 98% | 1.4% | 59% | 84% | 100% |
